{"source": "BindingDB's records for doi:10.1016/S0960-894X(97)00241-2", "about": "(1997)", "target": "Nitric oxide synthase, brain (Bos taurus)", "experiment": "Inhibition against neuronal nitric oxide synthase (nNOS) from bovine brain was determined", "data": [{"smiles": "C#CCNC(=N)N", "note": "[amino(prop-2-ynylamino)methaniminium]", "values": [{"measurement": "Ki", "result": 12, "unit": "mM"}]}]}
